Measurements taken from patent US11964971B2, “Methods and compositions for modulating splicing” (Skyhawk Therapeutics, Inc., priority 2019, dated 2024).
Read-outs that look alike come from different tables or passages of the source.

How the values were obtained:
SMN FL and SMN Δ7 = test: Quantitative splicing assay (SMN) in SMA patient fibroblasts (GM03813); format: cell-based; details: Homo sapiens, Fibroblast, read-out: SMN2 Splicing FL EC50 (nM)*
Experimental: Spinal muscular atrophy (SMA) patient fibroblasts (GM03813, Coriell) are plated in 96-well plates at 50,000 cells/well. […] Treated cells are lysed and cDNA synthesized using the Fast Advanced Cells-to-Ct kit (Thermofisher A35378) according to the manufacturer's instructions. 2 μL of each cDNA are used in qPCR reactions. […] Reactions are run in a Quant Studio 6 qPCR instrument with default settings.

SMN protein = SMN protein assay (MSD) in SMA patient fibroblasts (GM03813); format: cell-based, human
Procedure, shortened: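 Absolute SMN protein measured by Mesoscale Discovery assay in lysates, calibrated per plate with SMN standards (1–19.5 μg/ml). Cells: GM03813 SMA fibroblasts, 7000/well, 48 h compound exposure at doses of 2.5 μM down to 0.6 nM.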

[1] = test system: MDR1-MDCK cell monolayers; details: dog, MDCK-MDR1, 120 min, 5 μM, pH 7.4
MDR1 = test: in vitro; details: dog; for Papp A→B at 120 min, 5 μM: MDCK-MDR1, pH 7.4, MDCK-MDR1: Papp A-B (10^−6, cm/s); for Papp B→A at 120 min, 5 μM: MDCK-MDR1, pH 7.4, MDCK-MDR1: Papp B-A (10^−6, cm/s)
MDR1 (P-gp) = test: MDCK-MDR1 permeability assay, blood-brain-barrier penetration potential; details: dog, MDCK-MDR1, pH 7.4, MDCK-MDR1 Efflux Ratio

SMILES	EC50 (SMN FL and SMN Δ7; class symbol) [nM]	EC50 (SMN protein) [nM]	MDCK-MDR1: % Recov A-B (%) [1] [%]	MDCK-MDR1: % Recov B-A (%) [1] [%]	Papp A→B at 120 min, 5 μM (MDR1) [×10⁻⁶ cm/s]	Papp B→A at 120 min, 5 μM (MDR1) [×10⁻⁶ cm/s]	efflux ratio at 120 min, 5 μM (MDR1 (P-gp))	EC50 (SMN FL and SMN Δ7; given as number) [nM]
CN(c1cnc(-c2ccc(-c3cnn(C)c3)cc2O)cn1)[C@@H]1C[C@H]2CCC(N2)[C@@H]1F (single isomer, unassigned) [Compound 3E1]	101 to 500	16 to 50	56	66	8.42	22	3	–
CN(c1cnc(-c2ccc(-c3cnn(C)c3)cc2O)cn1)[C@H]1CC2CC[C@@H](N2)[C@H]1F (single isomer, unassigned) [Compound 3E2]	101 to 500	16 to 50	53	68	9.7	27.1	3	–
CN(c1cnc(-c2ccc(-c3ccn(C)c(=O)c3)cc2O)cn1)[C@H]1CC2CCC[C@@H](N2)[C@H]1F (single isomer, unassigned) [Compound 5E2]	101 to 500	16 to 50	78	82	1.96	43	22	–
CN(c1cnc(-c2ccc(-c3cn[nH]c3)cc2O)cn1)[C@H]1CC2CCC[C@@H](N2)[C@H]1F (single isomer, unassigned) [Compound 6E2]	16 to 50	0.01 to 15	70	58	3.67	22.2	6	–
CN(C)C(=O)c1cc2cc(O)c(-c3cnc(N(C)[C@@H]4C[C@H]5CCC(N5)[C@@H]4F)cn3)cc2o1 (single isomer, unassigned) [Compound 7E1]	501 to 10000	501 to 10000	91	88	1.78	42.4	24	–
CN(C)C(=O)c1cc2cc(O)c(-c3cnc(N(C)[C@H]4CC5CC[C@@H](N5)[C@H]4F)cn3)cc2o1 (single isomer, unassigned) [Compound 7E2]	501 to 10000	501 to 10000	90	93	1.92	59.9	31	–
CN(c1cnc(-c2cc(F)c(-c3ccn(C)c(=O)c3)cc2O)cn1)[C@H]1C[C@@H]2CCCC(N2)[C@H]1F (single isomer, unassigned) [Compound 12E2]	501 to 10000	16 to 50	72	88	2.14	57.4	27	–
CN(c1cnc(-c2cc(F)c(-c3ccn(C)c(=O)c3)cc2O)cn1)[C@H]1C[C@@H]2CCC(N2)[C@H]1F (single isomer, unassigned) [Compound 13E2]	–	0.01 to 15	80	87	1.97	40.8	21	398
CN(c1cnc(-c2ccc(-c3cnn(C)c3)cc2O)cn1)[C@@H]1CC2CC[C@H](N2)[C@@H]1F (single isomer, unassigned) [Compound 16E1]	501 to 10000	16 to 50	45	79	5.62	20.6	4	–
CN(c1cnc(-c2ccc(-c3cnn(C)c3)cc2O)cn1)[C@H]1C[C@@H]2CCC(N2)[C@H]1F (single isomer, unassigned) [Compound 16E2]	101 to 500	16 to 50	54	86	7.68	28.4	4	–
COc1cc(-c2ccc(-c3cnc(N(C)[C@@H]4CC5CC[C@H](N5)[C@@H]4F)cn3)c(O)c2)cnn1 (single isomer, unassigned) [Compound 26E1]	101 to 500	501 to 10000	45	74	5.06	24.4	5	–
CN(c1cnc(-c2cc(F)c(-c3cnn(C)c3)cc2O)cn1)[C@@H]1C[C@@]2(C)CC[C@](C)(N2)[C@@H]1F [Compound 58E1, 4-fluoro-2-(5-(((1S,2R,3R,5R)-2-fluoro-1,5-dimethyl-8-azabicyclo[3.2.1]octan-3-yl)(methyl)amino)pyrazin-2-yl)-5-(1-methyl-1H-pyrazol-4-yl)phenol]	–	101 to 500	37	64	7.67	22.1	3	–
CNC(=O)/C=C/c1cc(O)c(-c2cnc(N(C)[C@@H]3C[C@@]4(C)CC[C@](C)(N4)[C@@H]3F)cn2)cc1F [Compound 61E1, (E)-3-(2-fluoro-4-(5-(((1S,2R,3R,5R)-2-fluoro-1,5-dimethyl-8-azabicyclo[3.2.1]octan-3-yl)(methyl)amino)pyrazin-2-yl)-5-hydroxyphenyl)-N-methylacrylamide]	–	16 to 50	86	95	1.97	57.4	29	–
Cn1cc(-c2ccc(-c3cnc(N(C4CC4)[C@@H]4C[C@@]5(C)CC[C@](C)(N5)[C@@H]4F)cn3)c(O)c2)cn1 [Compound 75E1, 2-(5-(cyclopropyl((1S,2R,3R,5R)-2-fluoro-1,5-dimethyl-8-azabicyclo[3.2.1]octan-3-yl)amino)pyrazin-2-yl)-5-(1-methyl-1H-pyrazol-4-yl)phenol]	–	501 to 10000	40	70	2.11	16.1	8	–
Cn1cc(-c2ccc(-c3cnc(N(C4CC4)[C@H]4C[C@]5(C)CC[C@@](C)(N5)[C@H]4F)cn3)c(O)c2)cn1 [Compound 75E2, 2-(5-(cyclopropyl((1R,2S,3S,5S)-2-fluoro-1,5-dimethyl-8-azabicyclo[3.2.1]octan-3-yl)amino)pyrazin-2-yl)-5-(1-methyl-1H-pyrazol-4-yl)phenol]	–	101 to 500	38	66	2.39	16.9	7	–
CNC(=O)/C=C/c1cc(O)c(-c2cnc(N(C3CC3)[C@@H]3C[C@@]4(C)CC[C@](C)(N4)[C@@H]3F)cn2)cc1F [Compound 79E1, (E)-3-(4-(5-(cyclopropyl((1S,2R,3R,5R)-2-fluoro-1,5-dimethyl-8-azabicyclo[3.2.1]octan-3-yl)amino)pyrazin-2-yl)-2-fluoro-5-hydroxyphenyl)-N-methylacrylamide]	–	501 to 10000	84	88	1.67	45.3	27	–
